Experimental data reported in patent US20050215531A1, “Use of edg receptor binding agents in cancer” (priority 2002, published 2005).

Columns and labels:
HUVEC [1] = experiment: In vitro angiogenesis (tube formation) assay on Matrigel; assay type: cell-based, human
Experimental: Human umbilical vein endothelial cells (HUVEC) are cultured at 37° C. and 5% CO2 in medium M199 supplemented with 20% SCS (HyClone, Logan, Utah), 1 U/ml heparin, 50 μg/ml ECGS, 2 mM glutamine, 100 U/ml penicillin and 0.1 mg/ml streptomycin. Cells are used for experiments up to passage number 5. Short-starved HUVEC are obtained by starving with 1% SCS-containing M199 for 5 h. Recombinant human VEGF165 is obtained from PromoCell (Heidelberg, Germany). Phospho-specific ERK½, p3B kinase polyclonal antibodies, nonphospho ERK½ antibodies and LumiGLO chemiluminescent reagent are from New England BioLabs (Beverly, Mass.), polyclonal IKB antibodies from Santa Cruz Biotechnology (Santa Cruz, Calif.). Peroxidase-conjugated donkey anti-rabbit immunoglobulin G (IgG) and sheep anti-mouse IgG are purchased from Amersham LIFE SCIENCE (Amersham Place, England). lmmobilon-P transfer membranes are products of Millipore (Bedford, Mass.). S is obtained from Sigma Chemical Co.; S1P is from Biomol. Compound A-phosphate stock solution is prepared by the following protocol. Compound A-phosphate is dissolved in methanol tracing with concentrated HCl (0.5 mg Compound A-phosphate in 500 μl of methanol plus 2 μl of HCl). Solvent from the resulting solution is evaporated under vacuum and the residue obtained is redissolved (variant 1) in 0.1% of defatted BSA solution in sterile deionized water (500 μl) or (variant 2) in 0.5% Triton X-100 in deionized water. The resulting stock solutions (2.5 mM) are sonicated and stored at 4° C.
Morphogenesis of endothelial cells into capillary-like structures on Growth Factor Reduced Matrigel Matrix (BD Bioscience) is performed according to the manufacture procedure. Briefly, HUVEC are trypsinized, resuspended in serum-free Ml 99 medium containing soybean trypsin inhibitor (1 mg/ml, Sigma). After centrifugation cells are resuspended in serum-free medium at a density 0.5×10^5 cells/ml, and cell suspension is seeded in 96-well cell culture plates (Costar, Corning Incorporated) precoated with 50 μl of Matrigel in the absence or presence of various stimuli: VEGF at 1.5 nM, S1P at 0.1-2 μM, S at 0.5-2 μM, Compound A at 0.5-2 μM, and Compound A-phosphate at 0.1-2 μM. Eight hours later, cells on Matrigel are fixed with 3% formaldehyde in PBS and kept at 4° C. Results are quantitated from images made with a Nikon Diaphot microscope equipped with a cooled CCD camera (Kappa GmbH, Gleichen, Germany) by direct counting of branching points on two microscopic fields from each well done in duplicates.
The effect of Compound A and Compound A-phosphate on morphogenic differentiation of endothelial cells is determined using an in vitro angiogenesis assay on Matrigel. Endothelial cell morphogenesis is a complex process that requires cell-extracellular matrix interactions, followed by matrix remodelling, stimulated migration, cell-cell interactions, and perivascular proteolysis. […] This may be interpreted as a possible involvement of EDG-1 (S1P1) receptor-mediated signaling events in Compound A-phosphate-stimulated bioresponses (see e.g. FIG. 3). […] Importantly, high concentrations of S and Compound A (2-5 μM) inhibited VEGF-triggered tube formation.

HUVEC [2] = experiment: S1P-mediated HUVEC tube formation assay; assay type: cell-based, human; details: branching points in 3 independent fields at 4× magnification
Experimental: For the tube formation assay, HUVEC from passage 2-8 are used and are never greater than 70% confluent before harvesting. Cells are prepared for the assay by washing with Herpes Balanced Saline Solution (HBSS from Clonetics) and then trypsinizing with Trypsin/EDTA (0.25 mg/ml, from Clonetics). After approximately 90% of the cells have lifted off the plate, an equal volume of Trypsin Neutralizing Solution (TNS from Clonetics) is added and the cells are collected into a conical tube containing at least 10 ml of EBM-2 (Clonetics)+0.1% BSA (Sigma) media Cells are centrifuged at 1000 rpm for 5 minutes and the supematant is removed and replaced with 5 ml of fresh EBM-2+0.1% BSA. Cells are counted using a hemacytometer and the volume of the cell suspension is adjusted to achieve a concentration of 500,000 cells/ml. Conical tubes are prepared with test compounds at 100 nM, and pertussin toxin (PTx) at 10 ng/ml in each, then 1 ml of the cell suspension is added to each tube. Tubes are then incubated for ½ hour at 37° C., 5% CO2. The migration assay is performed using Fluoro-Blok 24-Multiwell insert Plates coated with fibronectin (8 μm pore size, Falcon #351147) instead of the individual inserts in a 24-well plate. Cells and test compounds are prepared and pre-incubated as described above, then 100 μl is added to each approriate well in the Insert Plate. 300 μl of the EBM-2+2% charcoastripped media without S1P is added to the bottoms of the wells marked for no stimulation (−), and 300 μl of the media containing S1P (500 nM) is added to the bottoms of the wells marked for stimulation (+). The plate is then incubated for 4 hours at 37° C., 5% CO2. […]
After incubation, the plate is read on a Cytofluor II at an excitation of 485 nm and emission of 530 nm. The Fluoro-Blok coating in the inserts allows only the cells that have migrated to the bottom to be counted. […]
Tube formation is quantitated by counting the number of branching points (two independent cords connecting) in 3 independent fields at 4× magnification.

CCCCCCCCc1ccc(CCC(N)(CO)COP(=O)(O)O)cc1 (stereo not drawn) [Compound A-phosphate]
tube formation potency at 2 μM versus 0.5 μM (HUVEC [1]; 2 μM): less potent than at 0.5 μM
effect on VEGF-mediated remodelling (HUVEC [1]; 0.5-1 μM, with VEGF): does not attenuate
concentration of maximal activity in capillary-like network formation (HUVEC [1]; bell-shape dose-dependence, tested 0.1-2 μM, 8 h): around 0.5 μM
number of branching points per microscopic field (induction potency) (HUVEC [1]; compared with S1P and VEGF): comparable for Compound A-phosphate and S1P
Branching Points (HUVEC [2]; treatment + S1P): 14 ± 7
Branching Points (HUVEC [2]; treatment alone): 48 ± 15
